pEC50: −log10 of the molar value.
System: 229E human corona virus (hCoV)
Test: 229E live virus assay (CPE, ATPlite readout in MRC-5 cells)
Assay type: cell-based, hCoV-229E
Conditions: MOI 0.05, ATPlite readout, run in duplicate
[1] = Human coronavirus 229E, MRC5, hCoV-229E live virus

SMILES	pEC50 [1]	pEC50 (hCoV-229E live virus)
CC(C)C[C@@H](C(=O)N1C[C@]2(C[C@H]1C#N)C(=O)Nc1ccccc12)N(C)C(=O)c1nc2ccccc2n1C [Example 282]	> 7.00	–
CC(C)C[C@@H](C(=O)N1C[C@]2(C[C@H]1C#N)C(=O)Nc1ccccc12)N(C)C(=O)c1cn(-c2ccc(F)cc2)nn1 [Example 283]	> 7.00	–
CC(C)C[C@@H](C(=O)N1C[C@]2(C[C@H]1C#N)C(=O)Nc1ccccc12)N(C)C(=O)c1cn(-c2ccc(Cl)cc2)nn1 [Example 284]	> 7.00	–
CC(C)C[C@@H](C(=O)N1C[C@]2(C[C@H]1C#N)C(=O)Nc1ccccc12)N(C)C(=O)c1ccc2cccnc2c1O [Example 285]	> 7.00	–
CC(C)C[C@@H](C(=O)N1C[C@]2(C[C@H]1C#N)C(=O)Nc1ccccc12)N(C)C(=O)c1cn(-c2cccc(Cl)c2)nn1 [Example 286]	> 7.00	–
CC(C)C[C@@H](C(=O)N1C[C@]2(C[C@H]1C#N)C(=O)Nc1ccccc12)N(C)C(=O)c1n[nH]c(-c2ccccc2)n1 [Example 288]	> 7.00	–
CC(C)C[C@@H](C(=O)N1C[C@]2(C[C@H]1C#N)C(=O)Nc1ccccc12)N(C)C(=O)c1cc(F)c2nn(C)cc2c1 [Example 309]	> 7.00	–
CC(C)C[C@@H](C(=O)N1C[C@]2(C[C@H]1C#N)C(=O)Nc1ccccc12)N(C)C(=O)c1cc(OC2CC2)c2nc(Cl)ccc2c1 [Example 310]	6.00 to 7.00	–
CC(C)C[C@@H](C(=O)N1C[C@]2(C[C@H]1C#N)C(=O)Nc1ccccc12)N(C)C(=O)c1cc(F)c2nn(C3CC3)cc2c1 [Example 311]	> 7.00	–
CC(C)C[C@@H](C(=O)N1C[C@]2(C[C@H]1C#N)C(=O)Nc1ccccc12)N(C)C(=O)c1cc(OC2CC2)c2ncccc2c1 [Example 312]	6.00 to 7.00	–
CC(C)C[C@@H](C(=O)N1C[C@]2(C[C@H]1C#N)C(=O)Nc1ccccc12)N(C)C(=O)c1cc(OC2CC2)n2nc(C3CC3)c(C(=O)C(F)(F)F)c2c1 [Example 313]	< 6.00	–
CC(C)C[C@@H](C(=O)N1C[C@]2(C[C@H]1C#N)C(=O)Nc1ccccc12)N(C)C(=O)c1cc(F)c2nc(C3CC3)c(C(=O)C(F)(F)F)n2c1 [Example 314]	> 7.00	–
CC(C)C[C@@H](C(=O)N1C[C@]2(C[C@H]1C#N)C(=O)Nc1ccccc12)N(C)C(=O)c1cc(OC2CC2)n2nc(C3CC3)cc2c1 [Example 315]	6.00 to 7.00	–
CC(C)C[C@@H](C(=O)N1C[C@]2(C[C@H]1C#N)C(=O)Nc1ccccc12)N(C)C(=O)c1cc(Cl)c2nn(C3CC3)cc2c1 [Example 316]	> 7.00	–
CC(C)C[C@@H](C(=O)N1C[C@]2(C[C@H]1C#N)C(=O)Nc1ccccc12)N(C)C(=O)c1cc(OC2CC2)c2nc(C3CC3)sc2c1 [Example 317]	6.00 to 7.00	–
CC(C)C[C@@H](C(=O)N1C[C@]2(C[C@H]1C#N)C(=O)Nc1ccccc12)N(C)C(=O)c1cc(F)c2nc(C3CC3)cn2c1 [Example 318]	> 7.00	–
COc1cc(C(=O)N(C)[C@@H](CC(C)C)C(=O)N2C[C@]3(C[C@H]2C#N)C(=O)Nc2ccccc23)cc2cn(C3(C)CC3)nc12 [Example 319]	> 7.00	–
COc1cc(C(=O)N(C)[C@@H](CC(C)C)C(=O)N2C[C@]3(C[C@H]2C#N)C(=O)Nc2ccccc23)cc2cn(C3CCC3)nc12 [Example 320]	6.00 to 7.00	–
Cc1ccc2cc(C(=O)N(C)[C@@H](CC(C)C)C(=O)N3C[C@]4(C[C@H]3C#N)C(=O)Nc3ccccc34)cc(OC3CC3)c2n1 [Example 321]	6.00 to 7.00	–

SMILES	pEC50 [1]	pEC50 (hCoV-229E live virus)
CC(C)C[C@@H](C(=O)N1C[C@]2(C[C@H]1C#N)C(=O)Nc1ccccc12)N(C)C(=O)c1cc(OC(F)(F)F)c2ncccc2c1 [Example 322]	> 7.00	–
Cc1cc2cc(C(=O)N(C)[C@@H](CC(C)C)C(=O)N3C[C@]4(C[C@H]3C#N)C(=O)Nc3ccccc34)cc(OC3CC3)c2nc1C [Example 323]	6.00 to 7.00	–
CC(C)C[C@@H](C(=O)N1C[C@]2(C[C@H]1C#N)C(=O)Nc1ccccc12)N(C)C(=O)c1cc(OC2CC2)c2ncc(C3CC3)cc2c1 [Example 324]	6.00 to 7.00	–
Cc1cc(F)c(C(=O)N(C)[C@@H](CC(C)C)C(=O)N2C[C@]3(C[C@H]2C#N)C(=O)Nc2ccccc23)cc1-c1cnn(C2CC2)c1 [Example 342]	6.00 to 7.00	–
CC(C)C[C@@H](C(=O)N1C[C@]2(C[C@H]1C#N)C(=O)Nc1ccccc12)N(C)C(=O)c1ccc(OC2CC2)c(-c2cccnc2)c1 [Example 343]	6.00 to 7.00	–
CC(C)C[C@@H](C(=O)N1C[C@]2(C[C@H]1C#N)C(=O)Nc1ccccc12)N(C)C(=O)[C@H]1CCN(C(=O)OC(C)(C)C)C1 [Example 344]	6.00 to 7.00	–
CC(C)C[C@@H](C(=O)N1C[C@]2(C[C@H]1C#N)C(=O)Nc1ccccc12)N(C)C(=O)[C@@H]1CCN(C(=O)OC(C)(C)C)C1 [Example 345]	–	> 7.00
CC(C)C[C@@H](C(=O)N1C[C@]2(C[C@H]1C#N)C(=O)Nc1ccccc12)N(C)C(=O)[C@@H](c1cnn(C)c1)C(C)C [Example 348]	6.00 to 7.00	–
CC(C)C[C@@H](C(=O)N1C[C@]2(C[C@H]1C#N)C(=O)Nc1ccccc12)N(C)C(=O)[C@H](c1cnn(C)c1)C(C)C [Example 349]	6.00 to 7.00	–
CC(C)C[C@@H](C(=O)N1C[C@]2(C[C@H]1C#N)C(=O)Nc1ccccc12)N(C)C(=O)[C@@H](c1cn(C)nn1)C(C)C [Example 350]	6.00 to 7.00	–
CC(C)C[C@@H](C(=O)N1C[C@]2(C[C@H]1C#N)C(=O)Nc1ccccc12)N(C)C(=O)[C@H](c1cn(C)nn1)C(C)C [Example 351]	6.00 to 7.00	–
CC(C)C[C@@H](C(=O)N1C[C@]2(C[C@H]1C#N)C(=O)Nc1ccccc12)N(C)C(=O)c1cnn(C(C)(C)C)c1 [Example 352]	> 7.00	–
CC(C)C[C@@H](C(=O)N1C[C@]2(C[C@H]1C#N)C(=O)Nc1ccccc12)N(C)C(=O)c1cnn(-c2ccccc2C(F)(F)F)c1 [Example 353]	> 7.00	–
CC(C)C[C@@H](C(=O)N1C[C@]2(C[C@H]1C#N)C(=O)Nc1ccccc12)N(C)C(=O)c1nnc(C2CC2)o1 [Example 354]	> 7.00	–
CC(C)C[C@@H](C(=O)N1C[C@]2(C[C@H]1C#N)C(=O)Nc1ccccc12)N(C)C(=O)c1nnc(-c2ccc(F)cc2)o1 [Example 355]	> 7.00	–
CC(C)C[C@@H](C(=O)N1C[C@]2(C[C@H]1C#N)C(=O)Nc1ccccc12)N(C)C(=O)c1nnn(C(C)(C)C)n1 [Example 356]	> 7.00	–
COc1cccc2[nH]c(C(=O)N(C)[C@@H](COC(C)(C)C)C(=O)N3C[C@]4(C[C@H]3C#N)C(=O)Nc3ccccc34)cc12 [Example 370]	> 7.00	–
CN(C(=O)c1cc2c(F)cc(F)cc2[nH]1)[C@@H](COC(C)(C)C)C(=O)N1C[C@]2(C[C@H]1C#N)C(=O)Nc1ccccc12 [Example 371]	> 7.00	–
C[C@@H](C(=O)N(C)[C@@H](CC(C)(C)C)C(=O)N1C[C@]2(C[C@H]1C#N)C(=O)Nc1ccccc12)c1cnn(C)c1 [Example 372]	> 7.00	–

SMILES	pEC50 [1]	pEC50 (hCoV-229E live virus)
C[C@H](C(=O)N(C)[C@@H](CC(C)(C)C)C(=O)N1C[C@]2(C[C@H]1C#N)C(=O)Nc1ccccc12)c1cnn(C)c1 [Example 373]	6.00 to 7.00	–
CN(C(=O)C(F)(F)F)[C@@H](CC(C)(C)C)C(=O)N1C[C@]2(C[C@H]1C#N)C(=O)Nc1ccccc12 [Example 374]	6.00 to 7.00	–
CN(C(=O)c1cc2c(OC3CC3)cccc2[nH]1)[C@@H](CC(C)(C)C)C(=O)N1C[C@]2(C[C@H]1C#N)C(=O)Nc1ccccc12 [Example 375]	> 7.00	–
[2H]C([2H])([2H])N(C(=O)c1nc(-c2ccccc2)c[nH]1)[C@@H](CC(C)(C)C)C(=O)N1C[C@]2(C[C@H]1C#N)C(=O)Nc1ccccc12 [Example 376]	> 7.00	–
[2H]C([2H])([2H])N(C(=O)c1cn(-c2ccc(Cl)cc2)nn1)[C@@H](CC(C)(C)C)C(=O)N1C[C@]2(C[C@H]1C#N)C(=O)Nc1ccccc12 [Example 377]	> 7.00	–
[2H]C([2H])([2H])N(C(=O)c1cn(C2CC2)nn1)[C@@H](CC(C)(C)C)C(=O)N1C[C@]2(C[C@H]1C#N)C(=O)Nc1ccccc12 [Example 378]	> 7.00	–
[2H]C([2H])([2H])N(C(=O)c1cn(C2CCC2)nn1)[C@@H](CC(C)(C)C)C(=O)N1C[C@]2(C[C@H]1C#N)C(=O)Nc1ccccc12 [Example 379]	> 7.00	–
[2H]C([2H])([2H])N(C(=O)c1cn(CC(F)(F)F)nn1)[C@@H](CC(C)(C)C)C(=O)N1C[C@]2(C[C@H]1C#N)C(=O)Nc1ccccc12 [Example 380]	> 7.00	–
[2H]C([2H])([2H])N(C(=O)c1ccc2ncc(C(F)(F)F)cc2c1)[C@@H](CC(C)(C)C)C(=O)N1C[C@]2(C[C@H]1C#N)C(=O)Nc1ccccc12 [Example 381]	> 7.00	–
[2H]C([2H])([2H])N(C(=O)c1cc(OC(F)(F)F)c2ncccc2c1)[C@@H](CC(C)(C)C)C(=O)N1C[C@]2(C[C@H]1C#N)C(=O)Nc1ccccc12 [Example 382]	> 7.00	–
[2H]C([2H])([2H])N(C(=O)c1cc(OC(F)F)c2ncccc2c1)[C@@H](CC(C)(C)C)C(=O)N1C[C@]2(C[C@H]1C#N)C(=O)Nc1ccccc12 [Example 383]	> 7.00	–
CN(C(=O)c1cn(C(C)(C)C)nn1)[C@@H](CC1CC1)C(=O)N1C[C@]2(C[C@H]1C#N)C(=O)Nc1ccccc12 [Example 402]	> 7.00	–
CN(C(=O)c1cc2c(F)cc(F)c(F)c2[nH]1)[C@@H](CCC(C)(C)C)C(=O)N1C[C@]2(C[C@H]1C#N)C(=O)Nc1ccccc12 [Example 412]	> 7.00	–
CCCOC[C@@H](C(=O)N1C[C@]2(C[C@H]1C#N)C(=O)Nc1ccccc12)N(C)C(=O)c1cc2c(F)cc(F)cc2[nH]1 [Example 413]	> 7.00	–
CN(C(=O)[C@H](O)C(C)(C)C)[C@@H](CC1CC1)C(=O)N1C[C@]2(C[C@H]1C#N)C(=O)Nc1ccccc12 [Example 417]	> 7.00	–
CCCC[C@H](NC(=O)[C@@H](O)c1ccc(F)cc1)C(=O)N1C[C@]2(C[C@H]1C#N)C(=O)Nc1ccccc12 [Example 418]	6.00 to 7.00	–
CCCC[C@H](NC(=O)[C@H](O)c1ccc(F)cc1)C(=O)N1C[C@]2(C[C@H]1C#N)C(=O)Nc1ccccc12 [Example 419]	6.00 to 7.00	–
CN(C(=O)[C@H](O)Cc1ccc(F)cc1)[C@@H](CC1CC1)C(=O)N1C[C@]2(C[C@H]1C#N)C(=O)Nc1ccccc12 [Example 423]	> 7.00	–
CC(C)C[C@@H](O)C(=O)N(C)[C@@H](CC1CC1)C(=O)N1C[C@]2(C[C@H]1C#N)C(=O)Nc1ccccc12 [Example 424]	> 7.00	–
